Series [1] concerns HIF PHD (HIF1 ODD-luc reporter). Description: HIF1 ODD-luc reporter assay in SH-SY5Y cells. Type of series: cell-based. The note with it: for effect on HIF1 ODD-luc reporter activation induced by Compound 8a: agents applied in equal concentration; for effect on reporter activation by HIF PHD inhibitors of various nature: NAC up to millimolar concentrations. In general terms: In a reporter assay the amount or activity of a reporter protein is the signal.

For series [2] the test system is unchanged. The note with it: specific for HIF PHD; cited from earlier work.
Series [3] deals with HIF-1 target genes (VEGF, HO-1), HIF1α, NQO-1. Description: RT-PCR of HIF1 target genes in N2a cells. The series is classed as cell-based, mouse. The note with it: 4 h.
Series [4] can be described thus: Potassium ferricyanide reduction. Type of series: physicochemical. The note with it: 1 mM agent, 1 mM potassium ferricyanide, 50 mM Tris-HCl buffer, pH 7.4.
The test system of series [5] is HIF PHD. As to conditions: cited from earlier work.
For series [6], the system named is HIF1 and HIF2. The note with it: cited from earlier work.
The subject of series [7] is HIF. As to conditions: cited from earlier work.
The target in series [8] is PHD2. As to conditions: ref 36 (FG-4592), ref 37 (IOX2); cited from earlier work.
[9] abbreviates: 3 h incubation, physiological L-Asc (0.04–0.1 mM).
The mark [10] stands for this setting: reporter activation by Compound 8a.

This is an account of results in PMC6460286 (Biochimie, 2017).

Molecules are shown by their SMILES. Read-outs that look alike come from different tables or passages of the source.

In the case of `CCOC(=O)c1ccc(O)c(O)c1` [DHB, Ethyl 3,4-dihydroxybenzoate], the “suppressing effect of L-Asc on reporter activation induced by the inhibitor” value (“suppressing effect of L-Asc … by the inhibitor” for short) in series [1] (setting [9]) was “very sensitive to L-Asc”. Further, the EC50 in series [1] (read-out: EC50 of reporter activation) was 250 µM.
Take `Oc1cccnc1NC(c1ccc(Cl)cc1)c1ccc2cccnc2c1O` (stereo not drawn) [Compound 8, adaptaquin]: the EC50 in series [2] is roughly 2 µM.
As for `Cc1nc(C(=O)NCC(=O)O)c(O)c2ccc(Oc3ccccc3)cc12` [FG-4592], in series [1] (setting [9]), the “suppressing effect of L-Asc … by the inhibitor” value was “minimal”. In addition, the “concentration above which toxicity is seen” value in series [1] (titration up to 0.6 mM, Supplementary Fig. S2) is “above 100 μM”.
Regarding `O=C1O[C@H]([C@@H](O)CO)C(O)=C1O` [L-Asc, L-ascorbic acid], in series [1] (3 h incubation), the “effect on HIF1 ODD-luc reporter activation induced by Compound 8a” value (shortened to “effect … by Compound 8a”) is listed as “potently suppresses”. In series [1] (setting [10]), the “L-Asc concentration at which suppression is already observed” value is 10 µM, the “concentration above which L-Asc effect shows saturation” value is “above 40 μM”, the “drop in magnitude of reporter activation with increase in L-Asc concentration” value worked out at 2.5 fold and the “increase in EC50 of Compound 8a with increase in L-Asc concentration” value was “ca. 1.5 fold”. Besides, the “effect of L-Asc alone on expression of HIF1 target genes” value in series [3] (100 μM) is on record as “no changes”. Besides, the “reducing power (ferricyanide reduction kinetics), L-Asc vs D-Asc” value in series [4] is on record as “no difference in reduction kinetics”. In addition, in series [5], the Km was roughly 50 µM. In addition, in series [6] (immunoblotting), the “L-Asc effect on HIF stabilization induced by 1 mM monomethyloxalylglycine” value is on record as “absence of L-Asc effect”. Also, the “concentration giving the comparable suppressive effect on HIF stability” value in series [7] was 50 µM.
As for `COC(=O)CNC(=O)C(=O)OC` [DMOG, dimethyloxalyl glycine], the “suppressing effect of L-Asc … by the inhibitor” value in series [1] (setting [9]) is on record as “pronounced for DMOG up to 250 μM”; in series [1] (higher DMOG concentrations (mM range), not shown), “negligible”. Also, the “working concentration resulting in HIF1 and HIF2 stabilization” value in series [6] (after 2 h incubation) is “ca. 1 mM”.
Regarding `O=C(O)CNC(=O)c1c(O)c2ccccc2n(Cc2ccccc2)c1=O` [IOX2], in series [1] (setting [9]), the “suppressing effect of L-Asc … by the inhibitor” value was “minimal”. The “inhibition constant, homogeneous enzyme assay with PHD2” value in series [8] is “nanomolar range”.
In the case of `CC(=O)N[C@@H](CS)C(=O)O` [NAC, N-acetylcysteine], in series [1] (3 h incubation), the “effect … by Compound 8a” value is recorded as “neither D-Asc nor NAC applied in the equal concentration cause any change”. Besides, in series [1] (NAC up to 1 mM, either drug, not shown), the “suppressing effect on reporter activation” value is given as “no suppressing effect”. Besides, in series [1], the “effect on reporter activation by HIF PHD inhibitors of various nature” value was “no effect”.
Turning to `O=C1O[C@H]([C@H](O)CO)C(O)=C1O` [D-Asc, D-isoascorbic acid], the “effect … by Compound 8a” value in series [1] (3 h incubation) is “neither D-Asc nor NAC applied in the equal concentration cause any change”. For the same molecule, the “effect on reporter activation by HIF PHD inhibitors of various nature” value in series [1] is “minor effect, if any”. The “inhibition of HIF1 target gene activation” value in series [3] (100 μM co-treatment with 5 μM Compound 8a) is listed as “under 10%”. The “reducing power (ferricyanide reduction kinetics), L-Asc vs D-Asc” value in series [4] is “no difference in reduction kinetics”.

The EC50 is the concentration needed to bring the measured effect to its halfway point. What is called Km is the concentration of substrate that gives half-maximal velocity.
